Data set [1] relates to DMM-induced OA in C57BL/6J mice. Put plainly: DMM-induced OA mouse model, oral administration. In kind it is in vivo. As to the method: (§1) All experiments were independently performed with at least three biological replicates to ensure reproducibility. For in vivo studies, animals were randomly assigned to treatment or control groups. To create a DMM-induced OA model, DMM surgery was performed on 12-week-old male C57BL/6J mice, following a previously reported protocol ([26]). Subsequently, NCD was either orally administered or injected in mice; the NCD (50 mg/kg) was orally administered on alternate days 4 weeks after DMM, whereas IA knee injection of NCD (10 μg) was administered once a week after 4 weeks. The mouse knee joint was processed for histological analysis 10 weeks after surgery. All experiments were independently performed with at least three biological replicates to ensure reproducibility. For in vivo studies, animals were randomly assigned to treatment or control groups. For in vitro experiments, cells were plated using a randomized layout across multi-well plates to avoid positional effects and ensure unbiased treatment assignment
(§2) All histological samples were prepared independently by two researchers. Cartilage destruction was evaluated based on Safranin O staining and scored using the OA Research Association International (OARSI) grading system ([29]). Additionally, all histological samples were analyzed through osteophyte maturity scoring and subchondral bone plate (SBP) thickness. Osteophyte maturity was scored as described previously ([30]). Briefly, the scoring was as follows: 0 = none, 1 = predominantly cartilaginous, 2 = mixed cartilage and bone with active vascular invasion and endochondral ossification, 3 = predominantly bone. SBP thickness was measured to analyze subchondral bone sclerosis. All experiments were independently performed over at least three replicates. […] For each sample, measurements were performed on serial sections, and the mean value was calculated for analysis. The samples were […] by treating with 0.5 M ethylenediamine tetraacetic acid (pH 8.0) for 2 weeks. Next, mouse knee joint samples were fixed using 4% paraformaldehyde and embedded in paraffin. The paraffin-embedded samples were cut into 5-μm sections and fixed on glass slides. The tissue sections were then hydrated using a graded ethanol series, which removed paraffin and xylene. Mouse knee joint sections were immunohistochemically analyzed using anti-Mmp3 (ab52915, Abcam, Cambridge, UK), anti-Mmp13 (ab51072, Abcam), and anti-Cox2 (66351-I-Ig, ProteinTech, Rosemont, ILllinois, USA).

Data set [2] has as its system IL-1β-induced Mmp3, Mmp13 and Cox2 expression in mouse articular chondrocytes. The data set is described as follows: IL-1β-induced Mmp3, Mmp13, Cox2 expression in chondrocytes (qRT-PCR, western blotting). In kind it is cell-based. The settings on record: IL-1β 1 ng/mL. On the procedure: NCD was supplied by Benobio Co (Gyeonggi-do, Korea), and IL‐1β was purchased from GenScript (Piscataway, NJ, USA). NCDs were dissolved in phosphate-buffered saline (PBS) for oral administration or IA injection.
Total RNA was extracted from mouse articular chondrocytes using TRIzol (Molecular Research Center Inc., Cincinnati, OH, USA) and the primers used were for the MMPs, glyceraldehyde 3-phosphate dehydrogenase (GAPDH), and Cox2. Primers utilized were as follows: mouse Mmp3 (5′-TCCTGATGTTGGTGGCTTCAG-3′ and 5′-TGTCTTGGCAAATCCGGTGTA-3′); mouse Mmp13 (5′-TGATGGACCTTCTGGTCTTCTGG-3′ and 5′-CATCCA CATGG TTGGG AAGT TCT-3′); mouse Cox2 (5′-GGTCTGGTGCCTGGTCTGATGAT-3′ and 5′-GTCCTTTCAAGGAGAATGGTGC-3′); mouse Gapdh (5′-TCACT GCCAC CCAGA AGAC-3′ and 5′-TGTAG GCCAT GAGGT CCAC-3′). Gene transcript expression levels were normalized against that of Gapdh by qRT-PCR using SYBR premix ExTaq (Takara Bio, Shiga, Japan). Results were expressed as fold-changes relative to the expression in the control group ([20]).
The total protein was extracted from the primary cultured chondrocytes using a lysis buffer, containing 150 mM NaCl, 1% NP-40, 50 mM Tris/HCl (pH 8.0), 0.2% sodium dodecyl sulfate, and 5 mM NaF, supplemented with protease and phosphatase inhibitor mixture (Roche, Madison, WI, USA). Proteins were separated using sodium dodecyl sulfate-polyacrylamide gel electrophoresis, and western blot analysis was performed using the following antibodies: goat anti‐Cox2 (sc‐1745; Santa Cruz Biotechnology, Dallas, TX, USA), mouse anti-Erk1/2 (610408; Becton Dickinson, NJ, USA), mouse anti-IκB [9242; Cell Signaling Technology (CST), MA, USA], mouse anti-p65 (8242; CST), mouse anti-phospho-p65 (3033; CST), mouse anti-p38 (#9212; CST), mouse anti-pp38 (#9215S; CST), mouse anti-c-Jun N-terminal kinase (Jnk) (#9252S; CST), mouse anti-pJnk (#9251S; CST), and mouse anti-pErk (#9101S; CST). Each signal was visualized using a SuperSignal West Dura Kit (Thermo Fisher Scientific, Waltham, MA, USA). Density analysis (AlphaEase FC 4.0; Alpha Innotech, CA, USA) was performed to calculate the relevant band intensities. Extracellular signal-regulated kinase (Erk) was used as the loading control ([28]).

A further data set has as its target T1, BRD4 BD1 (Homo sapiens, UniProt O60885).
T1 construct: BRD3 BD2, BRD4 BD1, BRD4 BD2; biotin (biotinylated protein); made in house; host or cells: Escherichia coli BL21(DE3)
The data set is described as follows: Biosensor binding kinetics assay (Octet), BRD4 BD1. As to the method:
Binding kinetics were assessed using the Octet® R2 system (Sartorius, Göttingen, Germany). Superstreptavidin biosensors were loaded with biotinylated BRD2 BD1, BRD2 BD2, BRD3 BD1, BRD3 BD2, BRD4 BD1, BRD4 BD2, or biotin alone (as a negative control) in PBST buffer (phosphate-buffered saline containing 0.02% Tween 20 and 5% DMSO). The sensors were then dipped into compound solutions for 10 min. To evaluate association kinetics (kon), each sensor was exposed to serial dilutions of the protein for 180 s, followed by dipping them into PBST buffer to assess dissociation kinetics (koff). For control, a separate sensor loaded with the compound was dipped into PBST alone. Competition binding assays were performed by exposing the compound-loaded sensor to mixtures of proteins and test compounds.
In general terms: In BLI a coated tip is dipped into the sample, and binding shifts an interference pattern.

In data set [3] the test system is DMM-induced OA in C57BL/6J mice. The data set is described as follows: DMM-induced OA mouse model, intra-articular injection. In kind it is in vivo. On the procedure: as §1, §2
A further data set deals with liver, lungs of mice. Put plainly: In vivo organ histology after oral or IA administration.
[4] abbreviates: oral 50 mg/kg on alternate days from 4 weeks after DMM, 10 weeks after surgery, vs vehicle.
Where [5] appears, read: NCD 10, 50, 100 µM, 12 h, qRT-PCR.
The mark [6] stands for this setting: IA injection 10 μg once a week from 4 weeks after DMM, 10 weeks after surgery, vs PBS.

Consider `CNC(=O)CC1C(=O)NCCN1Cc1ccc(-c2ccccc2-c2cccc3c2CN(C)C3=O)o1` (stereo not shown) [NCD, N-methyl-2-(1-((5-(2-(2-methyl-1-oxoisoindolin-4-yl)phenyl)furan-2-yl)methyl)-3-oxopiperazin-2-yl)acetamide], for which, in data set [1] (setting [4]), the OARSI score entry is reported as “decrease”, the Osteophyte maturity result is “decrease” and the SBP thickness result is listed as “decrease”. In addition, in data set [1] (oral 50 mg/kg, DMM mice), the “Expression of Mmp3, Mmp13 and Cox2 in articular cartilage (immunohistochemistry)” value is listed as “markedly reduced expression levels”; the “NITEGE levels (aggrecan degradation neoepitope)” value is on record as “significantly reduced”; the “Type II collagen (immunohistochemistry)” value is listed as “restored”. In data set [2] (setting [5]), the “Cox2 mRNA expression” value is reported as “marked, concentration-dependent suppression”; the “Mmp3 mRNA expression” value is “marked, concentration-dependent suppression”; the “Mmp13 mRNA expression” value is reported as “marked, concentration-dependent suppression”. For the same compound, in data set [2] (NCD 50 and 100 µM), the “mRNA and protein levels of Cox2” value is on record as “substantially reduced”. The Kd at BRD4 BD1 was above 1 µM. Also, in data set [3] (setting [6]), the OARSI grade entry is given as “significant reduction”, the Osteophyte maturity result is given as “significant reduction” and the SBP thickness result was “significant reduction”. Besides, in data set [3] (IA injection 10 μg, DMM mice), the “Expression of Mmp3, Mmp13 and Cox2 in knees (immunohistochemistry)” value is recorded as “lower expression levels”; the NITEGE expression entry is reported as “reduced”; the “Type II collagen levels (immunohistochemistry)” value is recorded as “partially preserved”. Moreover, in the data set with liver, lungs of mice (oral and intra-articular administration), the “Cytotoxicity in the liver or lungs (histological analyses)” value is on record as “no apparent cytotoxicity”. Besides, the “Organ toxicity in vivo” value in the data set with liver, lungs of mice (oral or IA routes) was “without causing detectable organ toxicity”.

In general, Kd refers to the free concentration of one partner at which half of the binding sites on the other are occupied at equilibrium, for simple one-to-one binding. Lower therefore signals tighter binding.

The values are drawn from article PMC12350126, “A novel carboxamide bromodomain inhibitor attenuates osteoarthritis via epigenetic repression of NF-κB and MAPK signaling” (Frontiers in Immunology, 2025).
